Experimental data from patent US20260042731A1, “(2,4-DICHLOROPHENOXY)ACETIC ACID ANALOGS” (CORTEVA AGRISCIENCE LLC, priority 2022, published 2026).
Where two headings read alike, the source gives them in different places.

Legend:
[1] = test system: Amaranthus rudis (AMATA), tall water hemp; assay: Postemergence herbicide evaluation, growth of Amaranthus rudis (AMATA); assay type: in vivo; conditions: Amaranthus tuberculatus, post-emergence, percent reduction in plant size relative to untreated control, read-out: Ave. AMATA; for pest or weed control at 280 g/ha: 280 g ae/ha; for pest or weed control at 560 g/ha: 560 g ae/ha
[2] = test system: Ambrosia artemisiifolia (AMBEL), common ragweed; assay: Postemergence herbicide evaluation, growth of Ambrosia artemisiifolia (AMBEL); assay type: in vivo; conditions: Ambrosia artemisiifolia, post-emergence, percent reduction in plant size relative to untreated control, read-out: AVE. AMBEL; for pest or weed control at 280 g/ha: 280 g ae/ha; for pest or weed control at 560 g/ha: 560 g ae/ha
[3] = test system: Abutilon theophrasti (ABUTH), velvetleaf; assay: Postemergence herbicide evaluation, growth of Abutilon theophrasti (ABUTH); assay type: in vivo; conditions: Abutilon theophrasti, post-emergence, percent reduction in plant size relative to untreated control, read-out: AVE. ABUTH; for pest or weed control at 280 g/ha: 280 g ae/ha; for pest or weed control at 560 g/ha: 560 g ae/ha
[4] = test system: Chenopodium album (CHEAL), common lambsquarters; assay: Postemergence herbicide evaluation, growth of Chenopodium album (CHEAL); assay type: in vivo; conditions: Chenopodium album, post-emergence, percent reduction in plant size relative to untreated control, read-out: Ave. CHEAL; for pest or weed control at 280 g/ha: 280 g ae/ha; for pest or weed control at 560 g/ha: 560 g ae/ha
[5] = test system: glyphosate resistant Conyza canadensis (L.) (ERICA), horseweed; assay: Postemergence herbicide evaluation, growth of Conyza canadensis (ERICA); assay type: in vivo; conditions: Erigeron canadensis, post-emergence, percent reduction in plant size relative to untreated control, read-out: Ave. ERICA; for pest or weed control at 280 g/ha: 280 g ae/ha; for pest or weed control at 560 g/ha: 560 g ae/ha
[6] = Volatility of compounds measured by thermogravimetric analysis (TGA); assay type: physicochemical
[7] = test system: weeds (ABUTH, AMATA, AMBEL, CHEAL, ERICA); assay: Postemergence herbicide evaluation, overall average % weed control across ABUTH, AMATA, AMBEL, CHEAL, ERICA; assay type: in vivo; conditions: post-emergence, average over the five weeds, read-out: Overall Ave % Weed Control; for pest or weed control at 280 g/ha: 280 g ae/ha; for pest or weed control at 560 g/ha: 560 g ae/ha

| Compound | pest or weed control at 280 g/ha ([1]; 168 h, 7 DAA) | pest or weed control at 560 g/ha ([1]; 168 h, 7 DAA) | pest or weed control at 280 g/ha ([1]; 336 h, 14 DAA) | pest or weed control at 560 g/ha ([1]; 336 h, 14 DAA) | pest or weed control at 280 g/ha ([1]; 504 h, 21 DAA) | pest or weed control at 560 g/ha ([1]; 504 h, 21 DAA) | pest or weed control at 280 g/ha ([2]; 168 h, 7 DAA) | pest or weed control at 560 g/ha ([2]; 168 h, 7 DAA) | pest or weed control at 280 g/ha ([2]; 336 h, 14 DAA) | pest or weed control at 560 g/ha ([2]; 336 h, 14 DAA) | pest or weed control at 280 g/ha ([2]; 504 h, 21 DAA) | pest or weed control at 560 g/ha ([2]; 504 h, 21 DAA) | pest or weed control at 280 g/ha ([3]; 168 h, 7 DAA) | pest or weed control at 560 g/ha ([3]; 168 h, 7 DAA) | pest or weed control at 280 g/ha ([3]; 336 h, 14 DAA) | pest or weed control at 560 g/ha ([3]; 336 h, 14 DAA) | pest or weed control at 280 g/ha ([3]; 504 h, 21 DAA) | pest or weed control at 560 g/ha ([3]; 504 h, 21 DAA) | pest or weed control at 280 g/ha ([4]; 168 h, 7 DAA) | pest or weed control at 560 g/ha ([4]; 168 h, 7 DAA) | further results |
| --- | --- | --- | --- | --- | --- | --- | --- | --- | --- | --- | --- | --- | --- | --- | --- | --- | --- | --- | --- | --- | --- |
| CC(=O)/C(C)=N/OC(=O)COc1ccc(Cl)cc1Cl [Compound A8, 3-((2-(2,4-Dichlorophenoxy)acetoxy)imino)butan-2-one] | 70% | 75% | 83% | 85% | 78% | 87% | 70% | 80% | 90% | 98% | 96% | 100% | 74% | 95% | 65% | 96% | 70% | 99% | 68% | 70% | pest or weed control at 280 g/ha ([4]; 336 h, 14 DAA): 73%; pest or weed control at 560 g/ha ([4]; 336 h, 14 DAA): 80%; pest or weed control at 280 g/ha ([4]; 504 h, 21 DAA): 83%; pest or weed control at 560 g/ha ([4]; 504 h, 21 DAA): 80%; pest or weed control at 280 g/ha ([5]; 168 h, 7 DAA): 70%; pest or weed control at 560 g/ha ([5]; 168 h, 7 DAA): 73%; pest or weed control at 280 g/ha ([5]; 336 h, 14 DAA): 85%; pest or weed control at 560 g/ha ([5]; 336 h, 14 DAA): 90%; pest or weed control at 280 g/ha ([5]; 504 h, 21 DAA): 92%; pest or weed control at 560 g/ha ([5]; 504 h, 21 DAA): 97%; TGA Data (rate of weight loss, volatility) [6]: 1 µg/min; pest or weed control at 280 g/ha ([7]; 168 h, 7 DAA): 70%; pest or weed control at 560 g/ha ([7]; 168 h, 7 DAA): 79%; pest or weed control at 280 g/ha ([7]; 336 h, 14 DAA): 79%; pest or weed control at 560 g/ha ([7]; 336 h, 14 DAA): 90%; pest or weed control at 280 g/ha ([7]; 504 h, 21 DAA): 84%; pest or weed control at 560 g/ha ([7]; 504 h, 21 DAA): 93% |
| O=C(COc1ccc(Cl)cc1Cl)ON1C(=O)c2ccccc2C1=O [Compound A15, 1,3-Dioxoisoindolin-2-yl 2-(2,4-dichlorophenoxy)acetate] | 73% | 73% | 82% | 78% | 84% | 83% | 73% | 75% | 95% | 88% | 98% | 95% | 78% | 85% | 83% | 95% | 88% | 99% | 68% | 70% | pest or weed control at 280 g/ha ([4]; 336 h, 14 DAA): 73%; pest or weed control at 560 g/ha ([4]; 336 h, 14 DAA): 70%; pest or weed control at 280 g/ha ([4]; 504 h, 21 DAA): 80%; pest or weed control at 560 g/ha ([4]; 504 h, 21 DAA): 75%; pest or weed control at 280 g/ha ([5]; 168 h, 7 DAA): 68%; pest or weed control at 560 g/ha ([5]; 168 h, 7 DAA): 65%; pest or weed control at 280 g/ha ([5]; 336 h, 14 DAA): 78%; pest or weed control at 560 g/ha ([5]; 336 h, 14 DAA): 88%; pest or weed control at 280 g/ha ([5]; 504 h, 21 DAA): 88%; pest or weed control at 560 g/ha ([5]; 504 h, 21 DAA): 95%; TGA Data (rate of weight loss, volatility) [6]: 0.1 µg/min; pest or weed control at 280 g/ha ([7]; 168 h, 7 DAA): 72%; pest or weed control at 560 g/ha ([7]; 168 h, 7 DAA): 74%; pest or weed control at 280 g/ha ([7]; 336 h, 14 DAA): 82%; pest or weed control at 560 g/ha ([7]; 336 h, 14 DAA): 84%; pest or weed control at 280 g/ha ([7]; 504 h, 21 DAA): 87%; pest or weed control at 560 g/ha ([7]; 504 h, 21 DAA): 89% |
| C/C(C/C(C)=N/OC(=O)COc1ccc(Cl)cc1Cl)=N\OC(=O)COc1ccc(Cl)cc1Cl [Compound B6, (2,4)-Pentane-2,4-dione O,O-di(2-(2,4-dichlorophenoxy)acetyl) dioxime] | 75% | 73% | 75% | 80% | 75% | 83% | 68% | 70% | 93% | 93% | 96% | 100% | 78% | 83% | 90% | 86% | 92% | 89% | 70% | 70% | pest or weed control at 280 g/ha ([4]; 336 h, 14 DAA): 88%; pest or weed control at 560 g/ha ([4]; 336 h, 14 DAA): 78%; pest or weed control at 280 g/ha ([4]; 504 h, 21 DAA): 93%; pest or weed control at 560 g/ha ([4]; 504 h, 21 DAA): 75%; pest or weed control at 280 g/ha ([5]; 168 h, 7 DAA): 68%; pest or weed control at 560 g/ha ([5]; 168 h, 7 DAA): 75%; pest or weed control at 280 g/ha ([5]; 336 h, 14 DAA): 93%; pest or weed control at 560 g/ha ([5]; 336 h, 14 DAA): 88%; pest or weed control at 280 g/ha ([5]; 504 h, 21 DAA): 98%; pest or weed control at 560 g/ha ([5]; 504 h, 21 DAA): 99%; TGA Data (rate of weight loss, volatility) [6]: 3.7 µg/min; pest or weed control at 280 g/ha ([7]; 168 h, 7 DAA): 72%; pest or weed control at 560 g/ha ([7]; 168 h, 7 DAA): 74%; pest or weed control at 280 g/ha ([7]; 336 h, 14 DAA): 88%; pest or weed control at 560 g/ha ([7]; 336 h, 14 DAA): 85%; pest or weed control at 280 g/ha ([7]; 504 h, 21 DAA): 91%; pest or weed control at 560 g/ha ([7]; 504 h, 21 DAA): 89% |
